# US8609723B2 (Beijing Dingguochangsheng Biotech., Co., Ltd., priority 2008, dated 2013)
# Experiments:
# [1] = system: serum corticosterone; experiment: Determination of the content of serum corticosterone (chronic stress model); assay type: in vivo; conditions: stressed rats, day after 21-day stress
# From the text: (§1) The rats in the normal control group were raised normally under a condition without any stimulation except for weighing body weight, measuring body temperature, and subjected to sugar test. All of other groups were subjected to stimulations of same type and same strength. During the experiment, different types of stimulations were applied in an unpredictable manner, and the same type of stimulation was enhanced each time.
# (§2) The chronic stress course was 20 days in total, once per day, from 9:00 AM to 2:00 PM. The stress protocol was shown as follows: horizontally shaking at a high speed for 45 min; nipping tails (1 cm from the tail root): 1 min; depriving of water for 24 h; forbidding moving for 1.5 h; fasting for 24 h; stimulating with ice water (water temperature: 10° C.) for 5 min; electric shocking (1 mA, time course: is, 1 shock/min) the bottoms of feet for 30 min; changing cages and raising separately for 24 h; forbidding moving for 2 h; nipping tails (1 cm from the root of tail) for 1 min; depriving of water for 24 h; horizontally shaking at a high speed for 1.5 h; fasting for 24 h; nipping tails (1 cm from the tail root): 1 min; electric shocking (1 mA, time course: 1 s, 1 shock/min) the bottoms of feet for 40 min; stimulating with ice water for 5 min; changing cages and raising separately for 24 h; horizontally shaking at a high speed for 60 min; electric shocking (1 mA, time course: 1 s, 1 shock/min) the bottoms of feet for 50 min; depriving of water for 24 h; forbidding moving for 2.5 h; and 24 h social isolation.
# In this experiment, the content of serum corticosterone was measured by a competitive method, with its mechanism shown as follow: antigens in samples and enzyme-labeled antigens compete to bind antibodies in a solid phase. The more antigens exist in samples, the less enzyme-labeled antigens bind to the solid phase, thereby resulting in a fainter coloration.
# On the next day after the end of the 21-day stress period, rats were sacrificed by decollation, and 5˜10 ml whole blood was collected. A portion of the collected whole blood was kept at room temperature for 20 min, followed by centrifugation at 1000 rpm for 10 min. Serum was then separated and stored at −80° C. The serum corticosterone detection kit was used for such detection.
# [2] = system: chronically stressed rats; experiment: Sugar water test of rats (chronic stress model); assay type: in vivo; conditions: table title says (%)
# From the text: as §1, §2
# Before this experiment, animals were trained to adapt to drink sugar water in a to quite room. Two bottles were placed simultaneously into each cage. For the first 24 h, these two bottles were both filled with 1% sugar water; and for the next 24 h, one of them was filled with 1% sugar water and the other was filled with pure water. Then after 23-hour water deprivation, the animals were tested for basic sugar water/pure water consumption. One bottle of 1% sugar water and one bottle of pure water were provided to each rat simultaneously. One hour later, the two bottles were weighed, and the total liquid consumption, sugar water consumption, pure water consumption, and the sugar water preference=sugar water consumption/total liquid consumption×100% were calculated, respectively. The experiment was performed after continuous administration of curcumin for 14 days.
# [3] = system: Prostate cancer cell; experiment: Inhibitory effect on tumor cells, MTT method; assay type: cell-based; conditions: 25 μM, 72 h
# Procedure: (§3) The tumor cells with a stable passage feature, including Hela tumor cells, renal cancer cells, breast cancer cells, gastric cancer cells, rectal cancer cells, pulmonary cancer cells, hepatic cancer cells HepG2, prostate cancer cells, esophageal cancer cells, sarcoma cells, glioma cells, melanoma cells, lymphoma cells, and bladder cancer cells, were counted under a microscope (×10^4), and cultured in a 96-well plate under CO2 saturated water vapor for 24 h.
# [4] = system: Hela cell; experiment: Inhibitory effect on tumor cells, MTT method; assay type: cell-based; conditions: 25 μM, 72 h
# Procedure: as §3
# [5] = system: Rectal cancer cell HCT116; experiment: Inhibitory effect on tumor cells, MTT method; assay type: cell-based; conditions: Rectal cancer cell HCT116, 25 μM, 72 h
# Procedure: as §3
# [6] = system: Sarcoma cell; experiment: Inhibitory effect on tumor cells, MTT method; assay type: cell-based; conditions: 25 μM, 72 h
# Procedure: as §3
# [7] = system: Breast cancer cell BT474; experiment: Inhibitory effect on tumor cells, MTT method; assay type: cell-based; conditions: Breast cancer cell BT474, 25 μM, 72 h
# Procedure: as §3
# [8] = system: Bladder cancer cell; experiment: Inhibitory effect on tumor cells, MTT method; assay type: cell-based; conditions: 25 μM, 72 h
# Procedure: as §3
# [9] = system: Esophageal cancer cell; experiment: Inhibitory effect on tumor cells, MTT method; assay type: cell-based; conditions: 25 μM, 72 h
# Procedure: as §3
# [10] = system: Glioma cell; experiment: Inhibitory effect on tumor cells, MTT method; assay type: cell-based; conditions: 25 μM, 72 h
# Procedure: as §3
# [11] = system: Hepatic cancer cell HepG2; experiment: Inhibitory effect on tumor cells, MTT method; assay type: cell-based; conditions: Hepatic cancer cell HepG2, 25 μM, 72 h
# Procedure: as §3
# [12] = system: Renal cancer cell 7860; experiment: Inhibitory effect on tumor cells, MTT method; assay type: cell-based; conditions: Renal cancer cell 7860, 25 μM, 72 h
# Procedure: as §3
# [13] = system: chronically stressed rats; experiment: Measurement of body temperature of chronically stressed rats; assay type: in vivo; conditions: for Body temperature after stress: chronic stress 21 days
# From the text: as §1
# as §2, with “The” for “The chronic stress course was 20 days in total, once per day, from 9:00 AM to 2:00 PM. The”
# The front part of a digital thermometer was coated with liquid paraffin, and then inserted into the anus of a rat with a depth of approximately 1 cm. The temperature was read twice accordingly and averaged.
# [14] = system: S-180 cells; experiment: Effect on apoptosis of tumor cells, cell cycle by flow cytometry; assay type: in vivo, mice; conditions: sarcoma cell cycle, S-180 tumor fluid, 7 days
# From the text: During the experiment, the mice were inoculated with S-180 cells (×10^7) in armpits. Seven days later, the mice were sacrificed by decollation and the tumors were removed. Tumor fluid was collected from tumors, and used for determining cell cycle by flow cytometry after ethanol fixation.
# [15] = 4.6 mg/kg, the values are: sugar water preference
# [16] = 4.6 mg/kg subcutaneous once every 7 days
# [17] = 9.2 mg/kg subcutaneous once every 7 days
# [18] = 18.4 mg/kg subcutaneous once every 7 days
substance,measurement,setting,value
curcumin decanoate [long acting curcumin],serum corticosterone,[1]; 4.6 mg/kg once every 7 days,239.5 ± 33.7 nmol/L
same,serum corticosterone,[1]; 9.2 mg/kg once every 7 days,222.9 ± 30.6 nmol/L
same,serum corticosterone,[1]; 18.4 mg/kg once every 7 days,199.6 ± 28.0 nmol/L
same,Sugar water volume after stress,[2]; [15],54.1 ± 4.7%
same,Sugar water volume before stress,[2]; [15],60.2 ± 9.2%
same,Sugar water volume after stress,[2]; 9.2 mg/kg,72.8 ± 3.1 %
same,Sugar water volume before stress,"[2]; 9.2 mg/kg, the values are: sugar water preference",60.4 ± 9.2%
same,Sugar water volume after stress,[2]; 18.4 mg/kg,71.6 ± 2.3 %
same,Sugar water volume before stress,"[2]; 18.4 mg/kg, the values are: sugar water preference",66.8 ± 8.6%
same,Inhibitory rate (%),[3],39.7 ± 1.3%
same,Inhibitory rate (%),[4],37.3 ± 2.4%
same,Inhibitory rate (%),[5],58.9 ± 2.1%
same,Inhibitory rate (%),[6],45.5 ± 1.6%
same,Inhibitory rate (%),[7],52.7 ± 1.6%
same,Inhibitory rate (%),[8],55.2 ± 1.0%
same,Inhibitory rate (%),[9],35.5 ± 1.1%
same,Inhibitory rate (%),[10],58.8 ± 1.5%
same,Inhibitory rate (%),[11],43.7 ± 1.4%
same,Inhibitory rate (%),[12],60.6%
same,Body temperature before stress,[13]; [16],37.06 ± 0.125 °C
same,Body temperature after stress,[13]; [16],37.40 ± 0.079 °C
same,Body temperature before stress,[13]; [17],37.06 ± 0.158 °C
same,Body temperature after stress,[13]; [17],37.45 ± 0.074 °C
same,Body temperature before stress,[13]; [18],37.00 ± 0.122 °C
same,Body temperature after stress,[13]; [18],37.48 ± 0.088 °C
same,APO % (apoptosis level of tumor cells),[14],44.7%
same,G1 %,[14],64.9%
same,G2 %,[14],1.0%
same,S %,[14],34.1%
